In ChEMBL document CHEMBL1143421, “Population pharmacokinetics at two dose levels and pharmacodynamic profiling of flucloxacillin” (Antimicrob Agents Chemother, 2007):

Experiments:
[1] = Total body clearance in human at 500 mg, iv infused for 5 mins; conditions: in vivo
[2] = Renal clearance in human at 500 mg, iv infused for 5 mins; format: ADME, organism-based, Kidney; conditions: in vivo, read-out: CL_renal (converted)
Homo sapiens [3] = experiment: Nonrenal clearance in human at 500 mg, iv infused for 5 mins; format: ADME, organism-based; conditions: in vivo
Homo sapiens [4] = experiment: Metabolic stability in human assessed as urinary excretion of unchanged drug level at 500 mg, iv infused for 5 mins; format: ADME, organism-based, Urine; conditions: in vivo
[5] = Volume of distribution at steady state in human at 500 mg, iv infused for 5 mins; format: ADME, organism-based; conditions: in vivo, read-out: Vdss
[6] = Plasma concentration in human at 500 mg, iv infused for 5 mins; format: ADME, organism-based
[7] = Terminal half life in human at 500 mg, iv infused for 5 mins; format: ADME, organism-based; conditions: in vivo, read-out: beta t1/2 (converted)
[8] = Mean residence time in human at 500 mg, iv infused for 5 mins; format: ADME, organism-based; conditions: in vivo
[9] = Total body clearance in human at 1000 mg, iv infused for 5 mins; conditions: in vivo
[10] = Renal clearance in human at 1000 mg, iv infused for 5 mins; format: ADME, organism-based, Kidney; conditions: in vivo, read-out: CL_renal (converted)
Homo sapiens [11] = experiment: Nonrenal clearance in human at 1000 mg, iv infused for 5 mins; format: ADME, organism-based; conditions: in vivo
Homo sapiens [12] = experiment: Metabolic stability in human assessed as urinary excretion of unchanged drug level at 1000 mg, iv infused for 5 mins; format: ADME, organism-based, Urine; conditions: in vivo
[13] = Volume of distribution at steady state in human at 1000 mg, iv infused for 5 mins; format: ADME, organism-based; conditions: in vivo, read-out: Vdss
[14] = Terminal half life in human at 1000 mg, iv infused for 5 mins; format: ADME, organism-based; conditions: in vivo, read-out: beta t1/2 (converted)
[15] = Mean residence time in human at 1000 mg, iv infused for 5 mins; format: ADME, organism-based; conditions: in vivo
[16] = Renal clearance in human at a loading dose of 1 g and maintenance dose of 1.2 g/h for 3 hrs; format: ADME, organism-based, Kidney; conditions: in vivo, iv, read-out: CL_renal (converted)
Homo sapiens [17] = species on record: Homo sapiens; experiment: Nonrenal clearance in human at a loading dose of 1 g and maintenance dose of 1.2 g/h for 3 hrs; format: ADME, organism-based; conditions: in vivo
[18] = Total clearance in human at 1 g, iv infused for 5 mins; conditions: in vivo
[19] = Protein binding in human plasma; format: ADME, cell-free; conditions: read-out: PPB (converted)
Staphylococcus aureus [20] = experiment: Antibacterial activity against methicillin-susceptible Staphylococcus aureus; format: functional
Staphylococcus aureus [21] = experiment: Bactericidal activity against methicillin-susceptible Staphylococcus aureus infected human at MIC of 0.75 mg/l at 2 g, iv administered every 8 hrs as 4 hrs infusion; format: functional
Staphylococcus aureus [22] = experiment: Bactericidal activity against methicillin-susceptible Staphylococcus aureus infected human at MIC of 0.75 mg/l at 6 g, iv administered as continuous infusion for 4 hrs; format: functional
Staphylococcus aureus [23] = experiment: Bactericidal activity against methicillin-susceptible Staphylococcus aureus infected human at MIC of 0.25 mg/l at 1.5 g, iv administered every 6 hrs as 0.5 hrs infusion; format: functional
Staphylococcus aureus [24] = experiment: Bactericidal activity against methicillin-susceptible Staphylococcus aureus infected human at MIC of 1 mg/l at 2 g, iv administered every 4 hrs as 0.5 hrs infusion; format: functional
Staphylococcus aureus [25] = experiment: Bacteriostatic activity against methicillin-susceptible Staphylococcus aureus infected human at MIC of 1.5 mg/l at 2 g, iv administered every 8 hrs as 4 hrs infusions; format: functional
Staphylococcus aureus [26] = experiment: Bacteriostatic activity against methicillin-susceptible Staphylococcus aureus infected human at MIC of 0.75 mg/l at 6 g, iv administered as continuous infusion for 4 hrs; format: functional
Staphylococcus aureus [27] = experiment: Bacteriostatic activity against methicillin-susceptible Staphylococcus aureus infected human at MIC of 0.75 mg/l at 1.5 g, iv administered every 6 hrs as 0.5 hrs infusion; format: functional
Staphylococcus aureus [28] = experiment: Bacteriostatic activity against methicillin-susceptible Staphylococcus aureus infected human at MIC of 2 mg/l at 2 g, iv administered every 4 hrs as 0.5 hrs infusion; format: functional
[29] = Plasma concentration in human at 1000 mg, iv infused for 5 mins; format: ADME, organism-based
clinical = conditions: human, in vivo
Description: Total clearance in human at a loading dose of 1 g and maintenance dose of 1.2 g/h for 3 hrs

## Cc1onc(-c2c(F)cccc2Cl)c1C(=O)N[C@@H]1C(=O)N2[C@@H]1SC(C)(C)[C@@H]2C(=O)O [FLOXACILLIN]
[1]
  clearance at 5 min: 136 mL/min
[2]
  CL renal at 5 min: 89.5 mL/min
Homo sapiens [3]
  CL: 2.72 L/h
Homo sapiens [4]
  Activity: 0.66
[5]
  Vd: 9.63 L
[6]
  concentration at 5 min: 86.8 µg/mL
[7]
  half-life: 1.4 h
[8]
  MRT: 1.18 h
[9]
  clearance at 5 min: 136 mL/min
[10]
  CL renal at 5 min: 88.2 mL/min
Homo sapiens [11]
  CL: 2.79 L/h
Homo sapiens [12]
  Activity: 0.65
[13]
  Vd: 9.97 L
[14]
  half-life: 1.62 h
[15]
  MRT: 1.22 h
[16]
  CL renal at 3 h: 88.3 mL/min
Homo sapiens [17]
  CL: 2.1 L/h
[18]
  clearance at 5 min: 118 mL/min
[19]
  fraction unbound: 0.054
Staphylococcus aureus [20]
  MIC90: ≤ 0.5 µg/mL
Staphylococcus aureus [21]
  fT>MIC: >=50%
Staphylococcus aureus [22]
  fT>MIC: >=50%
Staphylococcus aureus [23]
  fT>MIC: >=50%
Staphylococcus aureus [24]
  fT>MIC: >=50%
Staphylococcus aureus [25]
  fT>MIC: >=30%
Staphylococcus aureus [26]
  fT>MIC: >=30%
Staphylococcus aureus [27]
  Activity: >30%
Staphylococcus aureus [28]
  fT>MIC: >=30%
[29]
  concentration at 5 min: 167 µg/mL
clinical
  clearance at 3 h: 123 mL/min
